Active and inactive are the calls of the source. No cut-off for these calls is given here.

The experiment concerns the target T1, Histone-lysine N-methyltransferase SETD7 (Homo sapiens) (UniProt Q8WTS6).
T1 sequence (whole entry): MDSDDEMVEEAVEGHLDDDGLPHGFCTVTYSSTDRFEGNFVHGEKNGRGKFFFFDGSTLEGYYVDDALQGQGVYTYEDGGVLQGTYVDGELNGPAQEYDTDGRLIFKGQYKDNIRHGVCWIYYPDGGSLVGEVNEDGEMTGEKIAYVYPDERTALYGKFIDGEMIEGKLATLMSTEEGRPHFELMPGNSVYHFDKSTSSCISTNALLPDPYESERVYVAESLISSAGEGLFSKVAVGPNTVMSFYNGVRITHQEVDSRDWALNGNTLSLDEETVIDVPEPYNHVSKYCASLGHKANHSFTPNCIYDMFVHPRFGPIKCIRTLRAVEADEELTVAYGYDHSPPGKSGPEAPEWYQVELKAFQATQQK
Briefly: Inhibition of human recombinant SET7/9 in cell free system assessed as monomethylation of histone H3 Lys4 residue after 1 hr in presence of 2 uM AdoMet.
As to `CNCCN(CC[C@H](N)C(=O)O)C[C@H]1O[C@@H](n2cnc3c(N)ncnc32)[C@H](O)[C@@H]1O`, the inhibition entry is “Active”.
In the case of `Nc1ncnc2c1ncn2[C@@H]1O[C@H](CN(CCNCCc2ccccc2)CC[C@H](N)C(=O)O)[C@@H](O)[C@H]1O` it was “Active”; in that of `CCCNCCN(CC[C@H](N)C(=O)O)C[C@H]1O[C@@H](n2cnc3c(N)ncnc32)[C@H](O)[C@@H]1O`, “Active”; in that of `CCCCCCNCCN(CC[C@H](N)C(=O)O)C[C@H]1O[C@@H](n2cnc3c(N)ncnc32)[C@H](O)[C@@H]1O`, “Active”.
The value for `CCCCCCN(CC[C@H](N)C(=O)O)C[C@H]1O[C@@H](n2cnc3c(N)ncnc32)[C@H](O)[C@@H]1O` was “inactive”.
